In patent publication US6215002A, “Pyrrolopyrrolone derivatives as inhibitors of neutrophil elastase” (priority 1996, dated 2001):
Counter-ions that a name gives are not always drawn.

How the values were obtained:
[1] = target: T1, human neutrophil elastase (Homo sapiens, UniProt P08246); assay: In vitro assay of human neutrophil elastase (HNE); type: biochemical; settings: 118 nM purified human neutrophil elastase, pH 8.6, 15 min incubation at 30° C., MeO-succinyl-alanyl-alanyl-prolyl-valyl-p-nitroanilide substrate; read-out: HNE IC50
T1 sequence (P08246 30-267): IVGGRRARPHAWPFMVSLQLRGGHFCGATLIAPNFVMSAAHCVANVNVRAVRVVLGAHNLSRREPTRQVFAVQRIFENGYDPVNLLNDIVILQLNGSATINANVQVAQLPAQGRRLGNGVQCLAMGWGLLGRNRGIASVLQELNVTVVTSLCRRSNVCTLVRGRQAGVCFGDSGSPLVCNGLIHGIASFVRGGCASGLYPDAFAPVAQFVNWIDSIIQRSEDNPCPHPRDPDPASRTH
In short: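 Residual activity was taken as the 10 min rate of absorbance rise at 405 nm after adding 0.6 mM MeO-succinyl-AAPV-p-nitroanilide. Curve fitting of activity against concentration gave IC50.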

Intracellular elastase = assay: Oral in vivo model using IL-8 induced lung infiltrates for the assessment of intracellular elastase inhibition (hamster test); settings: effective dose of less than 40 mg/kg, IL-8 intratracheal
Method: An Oral in vivo Model Using IL-8 Induced Lung Infiltrates For the Assessment of Intracellular Elastase Inhibition
Adult hamsters (100-150 g) are randomised into groups (n=4) and fasted overnight. Under gaseous anaesthetic (3% isofluorane) animals are dosed orally with 1 mL/100 g water as vehicle or containing predissolved compounds. Either at the same time, or subsequently under anaesthetic, animals are dosed intratracheally with 1 ug recombinant human IL-8 in 100 uL sterile saline. Six hours after IL-8 dosing animals are sacrificed using intrapertoneal pentobarbitone. The lungs are ravaged with 2×2.5 mL sterile saline and femurs are removed by dissection.
Intracellular elastase is prepared from neutrophils collected by lavage and from femoral bone marrow. This is achieved by sonication of the neutrophils and centrifugation to yield intracellular granules. These are disrupted by freeze/thawing and sonication. Elastase and myeloperoxidase assays are then performed on these samples to assess the efficacy of the compounds and to normalise for neutrophil recovery.

Row | Structure (SMILES) | IC50 [1] | duration of effect (Intracellular elastase)
1 | CC(C)[C@H]1C(=O)N(S(C)(=O)=O)[C@H]2CCN(C(=O)/C=C/CNC3CC3)[C@H]12.Cl (relative stereo) [Example 137, rel-(3R,3aR,6aS)-4-(4-Cyclopropylamino-but-2E-enoyl)-3-isopropyl-1-methanesulfonyl-hexahydro-pyrrolo[3,2-b]pyrrol-2-one hydrochloride] | 45 nM | at least 6 hours
2 | CC(C)[C@H]1C(=O)N(S(C)(=O)=O)[C@H]2CCN(C(=O)c3cccc(CN4CCC(C(N)=O)CC4)c3)[C@H]12.Cl (relative stereo) [Example 191, rel-1-[3-(6R-Isopropyl-4-methanesulfonyl-5-oxo-hexahydro-(3aS,6aR)-pyrrolo[3,2-b]pyrrole-1-carbonyl)-benzyl]-piperidine-4-carboxylic acid amide hydrochloride] | 41 nM | at least 6 hours
3 | CC(C)[C@H]1C(=O)N(S(C)(=O)=O)[C@H]2CCN(C(=O)/C=C/CN3C(C)CCC3C)[C@H]12.Cl (relative stereo) [Example 149, rel-(3R,3aR,6aS)-4-[4-(2,5-Dimethyl-pyrrolidin-1-yl)-but-2E-enoyl]-3-isopropyl-1-methanesulfonyl-hexahydro-pyrrolo[3,2-b]pyrrol-2-one hydrochloride] | 46 nM | at least 6 hours
4 | CC(C)[C@H]1C(=O)N(S(C)(=O)=O)[C@H]2CCN(C(=O)CCCCCN3CCCCCC3)[C@H]12 (relative stereo) [Example 60, rel-(3R,3aR,6aS)-4-(6-Azepin-1-yl-hexanoyl-3-isopropyl-1-methanesulfonyl)-hexahydro-pyrrolo[3,2-b]pyrrol-2-one hydrochloride] | 47 nM | at least 6 hours
5 | CCC[C@@H]1C(=O)N(S(C)(=O)=O)[C@@H]2CCN(C(=O)CCCCCN3CCCCCC3)[C@@H]12 [Example 117, hydrochloride] | 27 nM | at least 6 hours
6 | CC(C)[C@H]1C(=O)N(S(C)(=O)=O)[C@H]2CCN(C(=O)/C=C/CN3C[C@H]4Cc5c(F)ccc(F)c5C[C@@H]4C3)[C@H]12 (relative stereo) [Example 153, rel-(3R,3aR,6aS)-4-[4-(5,8-Difluoro-1,3,3a,4,9,9a-hexahydro-(3aS,9aS)-benzol[f]isoindol-2-yl)-but-2E-enoyl]-3-isopropyl-1-methanesulfonyl-hexahydro-pyrrolo[3,2-b]pyrrol-2-one hydrochloride] | 114 nM | at least 6 hours
7 | CC(C)NCc1ccc(C(=O)N2CC[C@H]3[C@H]2[C@@H](C(C)C)C(=O)N3S(C)(=O)=O)cc1.Cl (relative stereo) [Example 179, rel-(3R,3aR,6aS)-3-Isopropyl-4-[4-(isopropylamino-methyl)-benzoyl]-1-methanesulfonyl-hexahydro-pyrrolo[3,2-b]pyrrol-2-one hydrochloride] | 47 nM | at least 6 hours
8 | CCN(CC)C/C=C/C(=O)N1CC[C@H]2[C@H]1[C@@H](C(C)C)C(=O)N2S(C)(=O)=O (relative stereo) [Example 145, rel-(3R,3aR,6aS)-4-Diethylamino-but-2E-enoyl)-3-isopropyl-1-methanesulfonyl-hexahydro-pyrrolo[3,2-b]pyrrol-2-one hydrochloride] | 39 nM | at least 6 hours
9 | CCC[C@H]1C(=O)N(S(C)(=O)=O)[C@H]2CCN(C(=O)/C=C/CN3CCN(C)CC3)[C@H]12.Cl.Cl (relative stereo) [Example 254, rel-(3R,3aR,6aS)-1-Methanesulfonyl-4-[4-(4-methyl-piperazin-1-yl)-but-2E-enoyl]-3-propyl-hexahydro-pyrrolo[3,2-b]pyrrol-2-one dihydrochloride] | 97 nM | at least 6 hours
10 | CC(C)[C@H]1C(=O)N(S(C)(=O)=O)[C@H]2CCN(C(=O)c3ccc(CN4CCCC4)cc3)[C@H]12.Cl (relative stereo) [Example 173, rel-(3R,3aR,6aS)-3-Isopropyl-1-methanesulfonyl-4-(4-pyrrolidin-1-ylmethyl-benzoyl)-hexahydro-pyrrolo[3,2-b]pyrrol-2-one hydrochloride] | 65 nM | at least 6 hours
11 | CC(C)[C@H]1C(=O)N(S(C)(=O)=O)[C@H]2CCN(C(=O)c3ccc(CN4CCOCC4)cc3)[C@H]12.Cl (relative stereo) [Example 177, rel-(3R,3aR,6aS)-3-Isopropyl-1-methanesulfonyl-4-(4-morpholin-4-ylmethyl-benzoyl)-hexahydro-pyrrolo[3,2-b]pyrrol-2-one hydrochloride] | 20 nM | at least 6 hours
12 | CC(C)[C@H]1C(=O)N(S(C)(=O)=O)[C@H]2CCN(C(=O)CCN3CCCCC3)[C@H]12 (relative stereo) [Example 61, rel-(3R,3aR,6aS)-3-isopropyl-1-methanesulfonyl-4-(3-piperidin-1yl-propionyl-hexahydro-pyrrolo[3,2-b]pyrrol-2-one hydrochloride] | 242 nM | at least 6 hours
13 | CCC[C@H]1C(=O)N(S(C)(=O)=O)[C@H]2CCN(C(=O)CCN3CCCCC3)[C@H]12 (relative stereo) [Example 29, rel-(3R,3aR,6aS)-1-Methanesulfonyl-4-(3-piperidin-1-yl-propionyl)-3-propyl-hexahydro-pyrrolo[3,2-b]pyrrol-2-one] | 139 nM | at least 6 hours
14 | CC(C)[C@H]1C(=O)N(S(C)(=O)=O)[C@H]2CCN(C(=O)c3ccc(CN(C)C)cc3)[C@H]12.Cl (relative stereo) [Example 175, rel-(3R,3aR,6aS)-4-(4-Dimethylaminomethyl-benzoyl)-3-isopropyl-1-methanesulfonyl-hexahydro-pyrrolo[3,2-b]pyrrol-2-one hydrochloride] | 74 nM | at least 6 hours
15 | CC(C)[C@H]1C(=O)N(S(C)(=O)=O)[C@H]2CCN(C(=O)c3cccs3)[C@H]12 (relative stereo) [Example 249, rel-(3R,3aR,6aS)-3-Isopropyl-1-methanesulfonyl-4-(thiophene-2-carbonyl)-hexahydro-pyrrolo[3,2-b]pyrrol-2-one] | 68 nM | at least 6 hours
16 | CC(C)[C@H]1C(=O)N(S(C)(=O)=O)[C@H]2CCN(C(=O)/C=C/c3ccc(CN4CCCCC4)cc3)[C@H]12.Cl (relative stereo) [Example 158, rel-(3R,3aR,6aS)-3-Isopropyl-1-methanesulfonyl-4-[3-(4-piperidin-1-ylmethyl-phenyl)-(E)-acryloyl]-hexahydro-pyrrolo[3,2-b]pyrrol-2-one hydrochloride] | 19 nM | at least 6 hours
17 | CC(C)[C@H]1C(=O)N(S(C)(=O)=O)[C@H]2CCN(C(=O)/C=C/CN3C(C)CCCC3C)[C@H]12.Cl (relative stereo) [Example 139, rel-(3R,3aR,6aS)-4-[4-(2,6-Dimethyl-piperidin-1-yl)-but-2E-enoyl]-3-isopropyl-1-methanesulfonyl-hexahydro-pyrrolo[3,2-b]pyrrol-2-one hydrochloride] | 55 nM | at least 6 hours
18 | CCCN(C)Cc1ccc(C(=O)N2CC[C@H]3[C@H]2[C@@H](C(C)C)C(=O)N3S(C)(=O)=O)cc1.Cl (relative stereo) [Example 181, rel-(3R,3aR,6aS)-3-Isopropyl-1-methanesulfonyl-4-{4-[(methyl-propyl-amino)-methyl]-benzoyl}-hexahydro-pyrrolo[3,2-b]pyrrol-2-one hydrochloride] | 42 nM | at least 6 hours
19 | CC(C)[C@H]1C(=O)N(S(C)(=O)=O)[C@H]2CCN(C(=O)/C=C/CN(C(C)C)C(C)C)[C@H]12.Cl (relative stereo) [Example 144, rel-(3R,3aR,6aS)-4-(4-Diisopropylamino-but-2E-enoyl)-3-isopropyl-1-methanesulfonyl-hexahydro-pyrrolo[3,2-b]pyrrol-2-one hydrochloride] | 71 nM | at least 6 hours
20 | CC(C)[C@H]1C(=O)N(S(C)(=O)=O)[C@H]2CCN(C(=O)/C=C/CN3CCOCC3)[C@H]12.Cl (relative stereo) [Example 142, rel-(3R,3aR,6aS)-3-isopropyl-1-methanesulfonyl-4-(4-morpholin-4-yl-but-2E-enoyl)-hexahydro-pyrrolo[3,2-b]pyrrol-2-one hydrochloride] | 55 nM | at least 6 hours
21 | CC(=O)N1CCN(Cc2ccc(C(=O)N3CC[C@H]4[C@H]3[C@@H](C(C)C)C(=O)N4S(C)(=O)=O)cc2)CC1 (relative stereo) [Example 185, rel-(3R,3aR,6aS)-4-[4-Acetyl-piperazin-1-ylmethyl)-benzoyl]-3-isopropyl-1-methanesulfonyl-hexahydro-pyrrolo[3,2-b]pyrrol-2-one hydrochloride] | 33 nM | at least 6 hours
